The values that follow come from US20230203003A1, “Notch Inhibitors and Uses Thereof” (StemSynergy Therapeutics, Inc., priority 2020, published 2023).

What all share (type): cell-based
One experiment relates to Notch1. The experiment in a line: Notch1 Reporter Assay. For orientation: In a reporter assay the amount or activity of a reporter protein is the signal.
The subject of experiment [1] is OE33 Esophageal Adenocarcinoma cell line. The experiment in a line: OE33 Colony Formation Assay. The settings on record: Homo sapiens, OE33, 168 h, OE33 cells, 200 cells/well, 7 days, CellTiter-Glo. The method, then:
OE33 Colony Formation Assay
The OE33 Esophageal Adenocarcinoma cell line was cultured and plated into 96-well tissue culture plates under sparse conditions (200 cells/well). Test compounds were serially diluted in DMSO and then into culture media (final DMSO concentration = 0.1%). Compound/media was then added to cells every 48 hours for a total of 7 days. Clonogenic growth was assessed using the CellTiter-Glo reagent, according to manufacturer (Promega) specifications. Percent inhibition was calculated as the percent of luminescence normalized to control (0.1% DMSO) wells. Nonlinear regression curve fitting was performed using GraphPad Prism software to determine EC50′s.
On the technique in general: ATP-based viability assays read luminescence as a measure of living cells.

A further experiment deals with T1, hNotch1ICD (Homo sapiens, UniProt P46531).
T1 construct: pLV[Tet]-Puro-TRE3G>Notch1-ICD; expressed in transfected cells; host or cells: 293A cells
The experiment in a line: Notch1 Reporter Assay (Dox-inducible Notch1-ICD, CSL-responsive luciferase in 293A cells). The settings on record: read-out: Notch1 Reporter Assay IC50. The method, then: 293A cells expressing 1) pCMV-Tet-On 3G, 2) pLV[Tet]-Puro-TRE3G>Notch1-ICD, 3) pLV[Tet]-Puro-TRE3G>Notch2-ICD, 4) pLV[Tet]-Puro-TRE3G>Notch3-ICD, and 5) pCSL-RElement-Luc were used. When Doxycycline is added, the Tet-ON gene activates expression of hNotch1ICD, which together with endogenous NTC components binds to CSL responsive elements (pCSL-RElement-Luc) and expresses luciferase. 1 ×× 10^4 cells are plated in 100 µL (96-well format). 24 h later, compounds (10 mM stock in DMSO) are diluted in DMSO to 200X, then added (5 ul into 1 mL) to cell culture media containing 50 ng/mL Dox. This is then added 1:1 to cells. Final DMSO = 0.25%, Dox = 25 ng/mL. After 24 h, media is discarded, and cells are lysed in passive lysis buffer (Promega). Cells are rocked at room temperature for 15 min and then lysate is divided for luciferase assay (Luciferase Assay System, Promega) and cell viability (CellTiter Glo 2.0, Promega). Raw luciferase is normalized to cell viability, and then scaled to DMSO wells. Results are analyzed and IC50′s are determined in GraphPad by nonlinear regression curve fitting (4 parameter) of dose response curves.

[2] abbreviates: 293A cells, 24 h, luciferase normalized to cell viability.

The structures appear in SMILES notation. Where a name gives a salt, the structure may show the parent alone. Read-outs that look alike come from different tables or passages of the source.

T1 sequence (P46531 1754-2555 limits assumed): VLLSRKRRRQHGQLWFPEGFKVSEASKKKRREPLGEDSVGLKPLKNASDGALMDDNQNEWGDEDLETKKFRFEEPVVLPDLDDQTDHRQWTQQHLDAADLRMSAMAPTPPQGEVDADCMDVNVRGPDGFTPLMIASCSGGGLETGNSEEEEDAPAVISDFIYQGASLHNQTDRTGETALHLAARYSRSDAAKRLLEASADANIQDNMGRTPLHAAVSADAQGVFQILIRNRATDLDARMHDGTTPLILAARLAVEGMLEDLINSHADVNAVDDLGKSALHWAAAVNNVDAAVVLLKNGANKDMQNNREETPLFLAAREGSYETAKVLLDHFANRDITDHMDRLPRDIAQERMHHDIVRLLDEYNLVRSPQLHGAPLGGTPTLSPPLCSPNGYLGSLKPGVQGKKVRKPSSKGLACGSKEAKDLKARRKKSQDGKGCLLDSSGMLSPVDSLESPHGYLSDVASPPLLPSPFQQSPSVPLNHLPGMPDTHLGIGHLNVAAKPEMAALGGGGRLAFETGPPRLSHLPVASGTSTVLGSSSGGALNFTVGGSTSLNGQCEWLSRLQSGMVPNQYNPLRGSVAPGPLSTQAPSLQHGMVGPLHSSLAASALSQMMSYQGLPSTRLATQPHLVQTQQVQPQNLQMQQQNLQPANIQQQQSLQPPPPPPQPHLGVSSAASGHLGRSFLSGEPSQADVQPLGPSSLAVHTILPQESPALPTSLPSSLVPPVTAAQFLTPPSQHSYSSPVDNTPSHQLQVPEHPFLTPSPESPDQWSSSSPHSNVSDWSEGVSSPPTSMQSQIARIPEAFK

Broadly, the IC50 is the concentration that gives 50% inhibition. `CC(C)Cn1c(=O)c(C(=O)Nc2cccc(N3CCN(C)CC3)c2)c(O)c2ccccc21` [SSTN-560 Formate Salt, 4-Hydroxy-1-Isobutyl-N-(3-(4-Methylpiperazin-1-Yl)Phenyl)-2-Oxo-1,2-Dihydroquinoline-3-Carboxamide Formate Salt]: in the experiment with Notch1 (Formate Salt), the IC50 was found to be 10.2 µM.

`CC(C)Cn1c(=O)c(C(=O)Nc2cccc(N3CCN(C)CC3)c2)c(O)c2ccccc21` [SSTN-560, 4-hydroxy-1-isobutyl-N-(3-(4-methylpiperazin-1-yl)phenyl)-2-oxo-1,2-dihydroquinoline-3-carboxamide] registered an IC50 with Notch1 of 14.2 µM. Take `CC(C)Cn1c(=O)c(C(=O)Nc2cccc(N3CCN(C)CC3)c2)c(O)c2ccccc21` [SSTN-560_HCI salt, 4-hydroxy-1-isobutyl-N-(3-(4-methylpiperazin-1-yl)phenyl)-2-oxo-1,2-dihydroquinoline-3-carboxamide]: half-maximal inhibition in the experiment on Notch1 (IC50) was put at 7.7 µM. As usually defined, the EC50 is the concentration that produces a half-maximal response. Low readings indicate a more potent agent, high ones a less potent agent. In experiment [1], `CC(C)Cn1c(=O)c(C(=O)Nc2cccc(F)c2)c(O)c2c(N3CCNCC3)cccc21` [SSTN-587_HCl salt, N-(3-fluorophenyl)-4-hydroxy-1-isobutyl-2-oxo-5-(piperazin-1-yl)-1,2-dihydroquinoline-3-carboxamide hydrochloride salt] gave an EC50 of 1.7 µM. For the same compound, the IC50 on hNotch1ICD (setting [2]) turned out to be 3.8 µM; on hNotch1ICD (value printed in the synthesis heading of the compound) it was 3.76 µM. With `CC(C)Cn1c(=O)c(C(=O)Nc2cc(F)ccn2)c(O)c2ccccc21` [compound 522, N-(4-fluoropyridin-2-yl)-4-hydroxy-1-isobutyl-2-oxo-1,2-dihydroquinoline-3-carboxamide], the EC50 in experiment [1] is 6 µM. For the same compound, on hNotch1ICD (setting [2]), the IC50 was 17.2 µM. For `CC(C)Cn1c(=O)c(C(=O)Nc2ccon2)c(O)c2ccccc21` [compound 525, 4-hydroxy-1-isobutyl-N-(isoxazol-3-yl)-2-oxo-1,2-dihydroquinoline-3-carboxamide], in experiment [1], a half-maximal response (EC50) required 7.4 µM. Besides, the IC50 on hNotch1ICD (setting [2]) is 13.8 µM. Compound `CC(C)Cn1c(=O)c(C(=O)Nc2cnn(C)c2)c(O)c2ccccc21` [compound 534, 4-hydroxy-1-isobutyl-N-(1-methyl-1H-pyrazol-4-yl)-2-oxo-1,2-dihydroquinoline-3-carboxamide] returned an EC50 in experiment [1] of 2.5 µM. For the same compound, the half-inhibitory concentration (IC50) at hNotch1ICD (setting [2]) stood at 11.3 µM.

In experiment [1], `CC(C)Cn1c(=O)c(C(=O)Nc2cccc(F)c2)c(O)c2ccccc21` [compound 538, N-(3-fluorophenyl)-4-hydroxy-1-isobutyl-2-oxo-1,2-dihydroquinoline-3-carboxamide] returned an EC50 of 1.7 µM. At hNotch1ICD (setting [2]), the IC50 came to 9.6 µM. For `CC(C)Cn1c(=O)c(C(=O)Nc2cccc(N3CCNCC3)c2)c(O)c2ccccc21` [compound 552, 4-hydroxy-1-isobutyl-2-oxo-N-(3-(piperazin-1-yl)phenyl)-1,2-dihydroquinoline-3-carboxamide trifluoro aceticacid], in that order: 0.9 µM and 4.3 µM. On to `CC(C)Cn1c(=O)c(C(=O)Nc2cccc(N(C)C3CC3)c2)c(O)c2ccccc21` [compound 561, N-(3-(cyclopropyl(methyl)amino)phenyl)-4-hydroxy-1-isobutyl-2-oxo-1,2-dihydroquinoline-3-carboxamide], for which a half-maximal response in experiment [1] (EC50) required 3.9 µM. Besides, the 50% inhibitory concentration (IC50) on hNotch1ICD (setting [2]) amounted to 19.1 µM. In the case of `CC(C)Cn1c(=O)c(C(=O)Nc2cccc(N(C)CC3CC3)c2)c(O)c2ccccc21` [compound 562, N-(3-((cyclopropylmethyl)(methyl)amino)phenyl)-4-hydroxy-1-isobutyl-2-oxo-1,2-dihydroquinoline-3-carboxamide], the concentration giving a half-maximal response (EC50) in experiment [1] was found to be 7.7 µM. The 50% inhibitory concentration (IC50) on hNotch1ICD (setting [2]) worked out at 15 µM.
